From paper PMC12035797, “Peptidomimetics Activating the Proteasome: A New Perspective for Parkinson’s Treatment” (Journal of Medicinal Chemistry, 2025)
Entries after “also recorded” stand apart in the source; their conditions may differ. Where a SMILES comes first, the peptide text is derived from it. [ ]: non-standard residue; d: D form. N(4-MeOBn)Gly = COc1ccc(CNCC(=O)O)cc1; NMeR = CN[C@@H](CCCNC(=N)N)C(=O)O; Gly(N-CH2CH2OH) = O=C(O)CNCCO; NMeS = CN[C@@H](CO)C(=O)O; Nlys = NCCCCNCC(=O)O

Key:
[1] = Stability of the compounds in human plasma (UHPLC); format: in vitro ADME; settings: 37 °C, 30 min
Protocol: We tested the proteolytic stability of the obtained peptidomimetics by incubating them with human plasma at 37 °C for 30 min. The process was monitored by UHPLC. Using mass spectrometry, the proteolytic degradation sites were determined (Figure 1B). […] Apparently, the modifications made the modulators considerably less susceptible to the action of proteases present in the plasma.
The modulators were incubated with human serum (Merck, Darmstadt, Germany) at 37 °C for 30 min. The compounds were dissolved in water, and their final concentration was 200 μM. Every 5 min, samples were taken from the incubated solution, and the reaction was stopped with 6% trichloroacetic acid (TCA) added to the sample in a 1:1 (v/v) ratio. Next, the samples were centrifuged for 10 min at 4 °C and 14,000 rpm. The supernatant was subjected to HPLC and MS analyses. The progress of proteolytic degradation of modulators was monitored using a UHPLC chromatograph (Shimadzu, Tokyo, Japan) with a Kinetex analytical column 100 mm × 2.1 mm, 2.6 μm, 100 Å (Phenomenex, Torrance, CA, USA) with UV detection at a wavelength of 223 nm. The degree of degradation was estimated based on the area of the peaks corresponding to the starting materials. In order to identify peptide fragments resulting from degradation, analysis was performed using an Autoflex maX MALDI TOF mass spectrometer (Bruker, […]). All experiments were performed in at least three independent replicates.

human 20S proteasome = tested on: T1, human 20S proteasome; assay: h20S proteasome activity probed with FRET-type Dabcyl-EDANS substrate; format: biochemical; settings: for h20S stimulating capacity, Dabcyl-EDANS: 1.0-50 μM modulator
T1 construct: human proteasome isolated from erythrocytes; from tissue; host or cells: human erythrocytes
Text: (§1) To assess the influence of substitutions increasing proteolytic stability on the modulators’ capacity to stimulate chymotrypsin-like, trypsin-like, and caspase-like activity of h20S, we used classic fluorogenic substrates: Suc-LLVY-AMC, Boc-LRR-AMC, and Z-LLE-AMC, respectively. To confirm the observed stimulating capacity, we also conducted assays using a FRET-type reporter peptide with a sequence consisting of 11 residues (Lys(Dabcyl)-[…]EDANS)-Gly).[27] As we checked, the activated 20S hydrolyzed this substrate after more than one residue (Lys, Gly, and Glu), which makes it a probe better reflecting the concerted action of the proteasome’s three peptidases. […] The discrepancy in the level of activation was mainly due to the greater sensitivity of the FRET substrate, as it is not digested, unlike the AMC-based probes, by the latent proteasome, which results in greater differences in fluorescence relative to the controls. […] The ability to affect individual peptidases of the proteasome in different ways is most likely related to the allosteric mechanism of action of the modulators. Binding at a site distant from the catalytic compartment may result in greater diversity in the pathways by which the signal reaches active sites and differential effects of that signal on each peptidase.
(§2) The effect of all synthesized peptidomimetics on the catalytic activity of the proteasome was tested using a human proteasome isolated from erythrocytes. Suc-LLVY-AMC, Boc-LRR-AMC, and Z-LLE-AMC fluorogenic substrates (Bachem, Bubendorf, Switzerland) were used for assessment of the chymotrypsin-, trypsin-, and caspase-like activities, respectively. A homemade FRET-type substrate Dabcyl-EDANS (Lys(Dabcyl)-[…]EDANS)-Gly)[26] was used as an additional probe. Stock solutions of the substrates and tested peptidomimetics were prepared in dimethyl sulfoxide (DMSO), ensuring that the final concentration of DMSO in all samples remained consistent at 2%. The small fluorogenic substrates were used at a final concentration of 100 μM, while Dabcyl-EDANS was prepared at a final concentration of 15 μM. Modulators were tested in concentrations ranging from 1.0 to 50 μM, with compounds containing TAT or 6R sequences tested at lower concentrations ranging from 0.5 to 10 μM. Activity tests were conducted in 96-well plates using 50 mM Tris/HCl, pH 8.0, as an assay buffer. The final concentration of h20S proteasome was adjusted to 0.002 mg/mL (2.8 nM). The fluorescence of released aminomethylcoumarin (AMC) was monitored at 460 nm (λex was 380 nm), while the hydrolysis of Dabcyl-EDANS was detected by measuring emission at 493 nm (λex was set at 335 nm). Fluorescence measurements were taken continuously every 2 min over a 60 min period at 37 °C using a Tecan Infinite M200Pro spectrofluorometer (Tecan Trading AG, Männedorf, Switzerland). All activity assays were performed in at least three independent replicates. The relative activity was calculated in relation to the catalytic activity of the vehicle (DMSO)-treated latent proteasome, which was regarded as 100%. Statistical analysis was performed using the one-way ANOVA followed by Tukey’s post-hoc test. P-value <0.05 was considered statistically significant.

[2] = tested on: T2, human 20S proteasome, ChT-L peptidase; assay: Chymotrypsin-like (ChT-L) activity of h20S probed with Suc-LLVY-AMC; format: biochemical; settings: 100 μM Suc-LLVY-AMC; for ChT-L stimulating capacity, Suc-LLVY-AMC: whole concentration range
T2 construct: human proteasome isolated from erythrocytes; from tissue; host or cells: human erythrocytes
Protocol: (§3) To assess the influence of substitutions increasing proteolytic stability on the modulators’ capacity to stimulate chymotrypsin-like, trypsin-like, and caspase-like activity of h20S, we used classic fluorogenic substrates: Suc-LLVY-AMC, Boc-LRR-AMC, and Z-LLE-AMC, respectively.
as §2, with “Modulators were tested in concentrations ranging from 1.0 to 50 μM, with compounds containing TAT or 6R sequences tested at lower concentrations ranging from 0.5 to 10 μM.” left out

[3] = tested on: T3, human 20S proteasome, T-L peptidase; assay: Trypsin-like (T-L) activity of h20S probed with Boc-LRR-AMC; format: biochemical; settings: 100 μM Boc-LRR-AMC
T3 construct: human proteasome isolated from erythrocytes; from tissue; host or cells: human erythrocytes
Protocol: as §3
as §2, with “Modulators were tested in concentrations ranging from 1.0 to 50 μM, with compounds containing TAT or 6R sequences tested at lower concentrations ranging from 0.5 to 10 μM.” left out

[4] = tested on: T4, human 20S proteasome, C-L peptidase; assay: Caspase-like (C-L) activity of h20S probed with Z-LLE-AMC; format: biochemical; settings: 100 μM Z-LLE-AMC
T4 construct: human proteasome isolated from erythrocytes; from tissue; host or cells: human erythrocytes
Text: as §1, §2

[5] = PAMPA, blood–brain barrier mimic; format: in vitro ADME; settings: 500 μM, 37 °C, 22 h
Text: In neurodegenerative diseases, proteins prone to aggregation accumulate in the neuronal cells. Therefore, a necessary feature of potential drugs is not only permeability across the cell membrane but also the ability to cross the blood-brain barrier (BBB). To preliminarily investigate this feature, we performed parallel artificial membrane permeation assays (PAMPA) including as positive controls propranolol and Tat47-57, known for their ability to penetrate the blood-brain barrier. Dopamine hydrobromide was included as a negative control. For comparison, we also tested compound 1a, which is devoid of a CPP sequence. […] The PAMPA was performed as previously described.[21] Briefly, a 2% solution of porcine brain lipid membrane (PBL; Avanti Polar Lipids Inc., Alabaster, AL, USA) in anhydrous dodecane was used as a mimic of the blood-brain barrier. Propranolol hydrochloride (Merck, Darmstadt, Germany) and Tat47-57 (synthesized in-house) served as positive controls, while dopamine hydrobromide (Merck, Darmstadt, Germany) was used as a negative control. Stock solutions of the tested compounds and controls were prepared at a concentration of 10 mM in deionized water and then diluted to 500 μM using 0.1 M PBS containing 5% DMSO. The donor-acceptor plate assembly was incubated at 37 °C while being shaken at 250 rpm for 22 h. Absorbance at 290 nm was measured for propranolol using an Infinite […] plate reader (Infinite […] plate reader, Tecan). For the other samples, fluorescence measurements were performed after the compounds were reacted with 0.02% fluorescamine. The rate of passive diffusion was calculated as the linear velocity of permeation (Pe). The data represent an average of three independent biological replicates.

Structure (SMILES) | proteolytic stability in human plasma [1] | h20S stimulating capacity, Dabcyl-EDANS (human 20S proteasome; 15 μM Dabcyl-EDANS) | ChT-L stimulating capacity, Suc-LLVY-AMC [2] | T-L stimulating capacity, Boc-LRR-AMC [3] | C-L stimulating capacity, Z-LLE-AMC [4] | stimulation of h20S activity, Dabcyl-EDANS probe (human 20S proteasome; 15 μM Dabcyl-EDANS, level reached vs latent proteasome) [fold] | h20S stimulating potency, Dabcyl-EDANS (human 20S proteasome; at the lowest concentrations) | stimulation of h20S activity, Suc-LLVY-AMC probe ([2]; level reached vs latent proteasome) [fold] | permeability across artificial BBB membrane, PAMPA [5] | remaining at 0.5 h ([1]; human, plasma, UHPLC, read-out: amount of compound remaining after incubation with human plasma) [%]
C[C@@H](O)[C@H](NC(=O)[C@H](Cc1ccccc1)NC(=O)[C@H](Cc1ccc(O)cc1)NC(=O)CNCCCCN)C(=O)NCC(=O)N[C@@H](CO)C(=O)N[C@@H](CCCCN)C(=O)N[C@@H](CC(=O)O)C(=O)N[C@@H](Cc1c[nH]c2ccccc12)C(=O)N[C@@H](CCCNC(=N)N)C(=O)N(CCO)CC(=O)N[C@@H](Cc1ccc(O)cc1)C(=O)N[C@@H](Cc1ccc(O)cc1)C(=O)N[C@@H](CO)C(=O)O [1c] (H-[Nlys]YFTGSKDWR[Gly(N-CH2CH2OH)]YYS-OH) | most stable | less strongly than 1 | lower capacity of activating h20S |  |  |  |  |  |  | 
COc1ccc(CN(CC(=O)N[C@@H](CCCNC(=N)N)C(=O)N[C@@H](CCCNC(=N)N)C(=O)N[C@@H](Cc2ccc(O)cc2)C(=O)N[C@@H](Cc2ccc(O)cc2)C(=O)N[C@@H](CO)C(=O)O)C(=O)[C@H](CC(=O)O)NC(=O)[C@H](CCCCN)NC(=O)[C@H](CO)NC(=O)CNC(=O)[C@@H](NC(=O)[C@H](Cc2ccccc2)NC(=O)CN(Cc2ccc(OC)cc2)C(=O)[C@@H](N)CCCCN)[C@@H](C)O)cc1 [2f] (H-K[N(4-MeOBn)Gly]FTGSKD[N(4-MeOBn)Gly]RRYYS-OH) | most stable | least effective stimulants | least effective stimulants | weakest activators | weakest activators |  |  |  |  | 
C[C@@H](O)[C@H](NC(=O)[C@H](Cc1ccccc1)NC(=O)[C@H](Cc1ccc(O)cc1)NC(=O)CNCCCCN)C(=O)NCC(=O)N[C@@H](CO)C(=O)N[C@@H](CCCCN)C(=O)N[C@@H](CC(=O)O)C(=O)N[C@@H](Cc1ccc(O)cc1)C(=O)N[C@@H](CCCNC(=N)N)C(=O)N[C@@H](CCCNC(=N)N)C(=O)N[C@@H](Cc1ccc(O)cc1)C(=O)N[C@@H](Cc1ccc(O)cc1)C(=O)N[C@@H](CO)C(=O)O [compound 2a] (H-[Nlys]YFTGSKDYRRYYS-OH) | very stable | most effective h20S stimulators; also recorded: effective activator | most effective h20S stimulators |  |  |  |  |  |  | 
C[C@@H](O)[C@H](NC(=O)[C@H](Cc1ccccc1)NC(=O)[C@H](Cc1ccc(O)cc1)NC(=O)CNCCCCN)C(=O)NCC(=O)N[C@@H](CO)C(=O)N[C@@H](CCCCN)C(=O)N[C@@H](CC(=O)O)C(=O)N[C@@H](Cc1c[nH]c2ccccc12)C(=O)N[C@@H](CCCNC(=N)N)C(=O)N[C@@H](CO)C(=O)N[C@@H](Cc1ccc(O)cc1)C(=O)N[C@@H](Cc1ccc(O)cc1)C(=O)N[C@@H](CO)C(=O)O [compound 1a] (H-[Nlys]YFTGSKDWRSYYS-OH) |  | did not lose their ability to effectively stimulate h20S |  |  |  | 12 | even more potent than 1 | 8 | at the level of a negative control | 
C[C@@H](O)[C@H](NC(=O)[C@H](Cc1ccccc1)NC(=O)[C@H](Cc1ccc(O)cc1)NC(=O)[C@@H](N)CCCCN)C(=O)NCC(=O)N[C@@H](CO)C(=O)N[C@@H](CCCCN)C(=O)N[C@@H](CC(=O)O)C(=O)N[C@@H](Cc1c[nH]c2ccccc12)C(=O)N(C)[C@@H](CCCNC(=N)N)C(=O)N(C)[C@@H](CO)C(=O)N[C@@H](Cc1ccc(O)cc1)C(=O)N[C@@H](Cc1ccc(O)cc1)C(=O)N[C@@H](CO)C(=O)O [compound 1d] (H-KYFTGSKDW[NMeR][NMeS]YYS-OH) |  | reached stimulation levels equal to those of the best activators; also recorded: less strongly than 1 | lower capacity of activating h20S | poor activator | moderate activator |  |  |  |  | < 30
